Measurements taken from paper PMC4456024 (Chemical biology & drug design, 2014).

Target: cardiac troponin C (cNTnC) (Homo sapiens, UniProt P63316, C35S/C84S)
Assay: 2D 1H, […]-HSQC NMR titration, […] fit
Assay type: binding

Kd: 721 ± 16 µM
SMILES: Cc1ccc(C)c(N2CCN(c3ccncc3N)CC2)c1 [compound 6, 4-(4-(2,5-dimethylphenyl)-1-piperazinyl)-3-pyridinamine]
